Test results taken from patent publication US10947215B2, “Heteroaryl compounds and their use as therapeutic drugs” (Dong-A Socio Holdings Co., Ltd., priority 2015, dated 2021).

Experiments:
[1] = test system: Ba/F3-CDM cells (Ba/F3 transfected with CD8-MerTK); assay: In cell MER kinase assay, Ba/F3-CDM cell proliferation without IL-3 (Celltiter-Glo, GI50); assay type: cell-based, murine; conditions: 48 hours, read-out: Cell growth inhibition (GI50)
Summary of the method: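 Ba/F3 cells expressing CD8-MerTK were grown without IL-3, so that proliferation depends on MerTK. Cells were pre-incubated 24 h, then exposed to compound for 48 h. Viability was read by CellTiter-Glo, with IL-3-supplemented Ba/F3 run in parallel as a nonspecific cytotoxicity control, and GI50 was derived.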

[2] = biological target: human c-MER catalytic domain (Homo sapiens (Human), UniProt Q12866); assay: LanthaScreen TR-FRET biochemical kinase assay (c-MER); conditions: read-out: Mer TK inhibition (IC50), 10 uM ATP
human c-MER catalytic domain, sequence (Q12866 587-858): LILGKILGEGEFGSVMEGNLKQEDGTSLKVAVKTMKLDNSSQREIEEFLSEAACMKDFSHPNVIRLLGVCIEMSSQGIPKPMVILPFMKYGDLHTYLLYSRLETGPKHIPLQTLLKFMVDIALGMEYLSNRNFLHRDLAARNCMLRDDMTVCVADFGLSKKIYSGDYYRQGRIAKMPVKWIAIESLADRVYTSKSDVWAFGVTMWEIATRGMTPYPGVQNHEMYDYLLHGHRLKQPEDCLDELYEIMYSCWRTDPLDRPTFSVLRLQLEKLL

| Compound | GI50 [1] | IC50 [2] |
| --- | --- | --- |
| C[C@@H]1CN(C)[C@@H](C)CN1Cc1ccc(-c2ccc(CO[C@H]3CCC[C@@H]3NC(=O)c3cc(-c4cnn(C)c4)cnc3N)cc2)cc1 [Example 192, 2-amino-5-(1-methyl-1H-pyrazol-4-yl)-N-((1S,2S)-2-((4′-(((2R,5S)-2,4,5-trimethylpiperazin-1-yl)methyl)-[1,1′-biphenyl]-4-yl)methoxy)cyclopentyl)nicotinamide] | < 100 nM | < 10 nM |
| CCc1cc(CO[C@H]2CNC[C@@H]2NC(=O)c2cc(-c3ccc(CO)cc3)cnc2N)ccc1C [Example 389, 2-amino-N-((3S,4S)-4-((3-ethyl-4-methylbenzyl)oxy)pyrrolidin-3-yl)-5-(4-(hydroxymethyl)phenyl)nicotinamide] | 100 to 500 nM | < 10 nM |
